pKi: −log10 of the molar value. The source made the active and inactive calls. No cut-off for these calls is given here.
How the values were obtained:
[1] = test system: Calf thymus DNA; test: Binding affinity to calf thymus DNA by UV-visible absorption spectroscopy; type: nucleic-acid assay, Bos taurus; details: for Kb: Bos taurus
[2] = test system: Calf thymus DNA; test: Binding affinity to calf thymus DNA assessed as fluorescence quenching at DNA/compound ratio 4 by fluorescence spectrophotometer analysis; type: nucleic-acid assay; details: Bos taurus
[3] = test system: Calf thymus DNA; test: Binding affinity to calf thymus DNA assessed as relative viscosity after 5 mins by semimicrodilution capillary viscometer analysis; type: nucleic-acid assay; details: Bos taurus
[4] = test system: Escherichia coli; test: Photo-cleavage activity in Escherichia coli supercoiled pUC19 DNA assessed as formation of open circular form of DNA at 60 uM measured 2 hrs after UV-light irradiation by gel electrophoresis analysis
[5] = test system: Escherichia coli; test: Photo-cleavage activity in Escherichia coli supercoiled pUC19 DNA assessed as formation of nicked form of DNA at 20 to 40 uM measured 2 hrs after UV-light irradiation by gel electrophoresis analysis
[6] = test system: Escherichia coli; test: Photo-cleavage activity in Escherichia coli supercoiled pUC19 DNA assessed as formation of nicked form of DNA at 80 uM measured 2 hrs after UV-light irradiation by gel electrophoresis analysis
[7] = test system: Escherichia coli; test: Photo-cleavage activity in Escherichia coli supercoiled pUC19 DNA assessed as formation of linear form of DNA at 80 uM measured 2 hrs after UV-light irradiation by gel electrophoresis analysis
[8] = test system: Escherichia coli; test: Photo-cleavage activity in Escherichia coli supercoiled pUC19 DNA assessed as formation of open circular form of DNA at 40 uM measured 2 hrs after UV-light irradiation by gel electrophoresis analysis
[9] = test system: Escherichia coli; test: Photo-cleavage activity in Escherichia coli supercoiled pUC19 DNA assessed as formation of open circular form of DNA at 80 uM measured 2 hrs after UV-light irradiation by gel electrophoresis analysis
[10] = test system: Escherichia coli; test: Photo-cleavage activity in Escherichia coli supercoiled pUC19 DNA assessed as formation of open circular form of DNA at 140 uM measured 2 hrs after UV-light irradiation by gel electrophoresis analysis

SMILES: O=C(/C=C/c1cc2ccccc2nc1Cl)c1ccc([N+](=O)[O-])cc1
- pKi [1]: 6.27
- Kb [1]: 4.91 ×10⁴ /M
- Activity [2]: Active
- Activity [3]: Active
- Activity [4]: 56%
- Activity [5]: 8%
- Activity [6]: 70%
- Activity [7]: 24%

SMILES: Cc1ccc(C(=O)/C=C/c2cc3ccccc3nc2Cl)cc1
- pKi [1]: 6.27
- Kb [1]: 4.9 ×10⁴ /M
- Activity [2]: Active
- Activity [3]: Active
- Activity [4]: 51%
- Activity [5]: 8%
- Activity [6]: 70%
- Activity [7]: 24%

SMILES: O=C(/C=C/c1cc2ccccc2nc1Cl)c1ccc(O)cc1
- Kb [1]: 1.9 ×10⁴ /M
- Activity [2]: Active
- Activity [3]: Active
- Activity [8]: 24%
- Activity [9]: 70%
- Activity [4]: 53%
- Activity [5]: 8%
- Activity [6]: 70%
- Activity [7]: 24%

SMILES: COc1ccc(C(=O)/C=C/c2cc3ccccc3nc2Cl)cc1
- Kb [1]: 2.8 ×10⁴ /M
- Activity [2]: Active
- Activity [3]: Active
- Activity [4]: 52%
- Activity [10]: 58%
- Activity [5]: 8%
- Activity [6]: 70%
- Activity [7]: 24%

SMILES: O=C(/C=C/c1cc2ccccc2nc1Cl)c1ccccc1
- pKi [1]: 6.24
- Kb [1]: 5.2 ×10⁴ /M
- Activity [2]: Active
- Activity [3]: Active
- Activity [4]: 50%
- Activity [5]: 8%
- Activity [6]: 70%
- Activity [7]: 24%

SMILES: O=C(/C=C/c1cc2ccccc2nc1Cl)c1ccc(Cl)cc1
- pKi [1]: 6.25
- Kb [1]: 5.13 ×10⁴ /M
- Activity [2]: Active
- Activity [3]: Active
- Activity [4]: 54%
- Activity [5]: 8%
- Activity [6]: 70%
- Activity [7]: 24%

SMILES: CNc1ccc(C(=O)/C=C/c2cc3ccccc3nc2Cl)cc1
- Kb [1]: 3.5 ×10⁴ /M
- Activity [9]: 40%
- Activity [4]: 57%
- Activity [5]: 8%
- Activity [6]: 40%
- Activity [7]: 24%

SMILES: O=C(/C=C/c1cc2ccccc2nc1Cl)c1ccc(Br)cc1
- pKi [1]: 6.33
- Kb [1]: 4.2 ×10⁴ /M
- Activity [2]: Active
- Activity [3]: Active
- Activity [4]: 55%
- Activity [5]: 8%
- Activity [6]: 70%
- Activity [7]: 24%

From ChEMBL document CHEMBL3621078, “Synthesis, DNA binding, docking and photocleavage studies of quinolinyl chalcones” (Medchemcomm, 2014)
